Experimental data reported in patent US7074789B2, “Kinase inhibitors” (Amgen Inc., priority 1999, dated 2006).

Columns and labels:
Type in all cases: biochemical
[1] = biological target: T1, Lck (Homo sapiens, UniProt P06239); assay: Kinase inhibition assay (33P transfer), Lck; conditions: read-out: Lck-1
T1 construct: Kinases are expressed as either kinase domains or full length constructs; made in house
Outline: (§1)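 33P-ATP transfer to coated synthetic polymer substrates; acid wash (0.5% H3PO4), scintillant, liquid scintillation count. Enzymes: His- or GST-fusion kinases from E. coli or High Five insect cells.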

[2] = biological target: T2, Fyn (Homo sapiens, UniProt P06241); assay: Kinase inhibition assay (33P transfer), Fyn; conditions: read-out: Fyn-1
T2 construct: Kinases are expressed as either kinase domains or full length constructs; made in house
Outline: (§2)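 Radiometric format: recombinant tagged kinase (catalytic domain or whole protein, sometimes combined with regulatory polypeptides) phosphorylates immobilised poly(Glu,Tyr) 4:1 or poly(Arg,Ser) 3:1 using [33P]ATP. Wells are washed in 0.5% phosphoric acid, then counted. IC50 is taken where substrate labelling falls by half.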

[3] = biological target: T3, Ret-1 (Homo sapiens, UniProt P07949); assay: Kinase inhibition assay (33P transfer), Ret; conditions: Table 6, Ret-1 kinase inhibition class
T3 construct: Kinases are expressed as either kinase domains or full length constructs; made in house

[4] = biological target: T4, Tek (Homo sapiens, UniProt Q02763); assay: Kinase inhibition assay (33P transfer), Tek; conditions: read-out: Tek-1
T4 construct: Kinases are expressed as either kinase domains or full length constructs; made in house
Outline: as §2

[5] = biological target: T5, ErbB4 (Homo sapiens, UniProt Q15303); assay: Kinase inhibition assay (33P transfer), ErbB4; conditions: read-out: ErbB4-1
T5 construct: Kinases are expressed as either kinase domains or full length constructs; made in house

[6] = biological target: T6, PDGFRB (Homo sapiens, UniProt P09619); assay: Kinase inhibition assay (33P transfer), PDGFRB; conditions: read-out: PDGFRB-1
T6 construct: Kinases are expressed as either kinase domains or full length constructs; made in house
T6 sequence (P09619 33-1106, species assumed): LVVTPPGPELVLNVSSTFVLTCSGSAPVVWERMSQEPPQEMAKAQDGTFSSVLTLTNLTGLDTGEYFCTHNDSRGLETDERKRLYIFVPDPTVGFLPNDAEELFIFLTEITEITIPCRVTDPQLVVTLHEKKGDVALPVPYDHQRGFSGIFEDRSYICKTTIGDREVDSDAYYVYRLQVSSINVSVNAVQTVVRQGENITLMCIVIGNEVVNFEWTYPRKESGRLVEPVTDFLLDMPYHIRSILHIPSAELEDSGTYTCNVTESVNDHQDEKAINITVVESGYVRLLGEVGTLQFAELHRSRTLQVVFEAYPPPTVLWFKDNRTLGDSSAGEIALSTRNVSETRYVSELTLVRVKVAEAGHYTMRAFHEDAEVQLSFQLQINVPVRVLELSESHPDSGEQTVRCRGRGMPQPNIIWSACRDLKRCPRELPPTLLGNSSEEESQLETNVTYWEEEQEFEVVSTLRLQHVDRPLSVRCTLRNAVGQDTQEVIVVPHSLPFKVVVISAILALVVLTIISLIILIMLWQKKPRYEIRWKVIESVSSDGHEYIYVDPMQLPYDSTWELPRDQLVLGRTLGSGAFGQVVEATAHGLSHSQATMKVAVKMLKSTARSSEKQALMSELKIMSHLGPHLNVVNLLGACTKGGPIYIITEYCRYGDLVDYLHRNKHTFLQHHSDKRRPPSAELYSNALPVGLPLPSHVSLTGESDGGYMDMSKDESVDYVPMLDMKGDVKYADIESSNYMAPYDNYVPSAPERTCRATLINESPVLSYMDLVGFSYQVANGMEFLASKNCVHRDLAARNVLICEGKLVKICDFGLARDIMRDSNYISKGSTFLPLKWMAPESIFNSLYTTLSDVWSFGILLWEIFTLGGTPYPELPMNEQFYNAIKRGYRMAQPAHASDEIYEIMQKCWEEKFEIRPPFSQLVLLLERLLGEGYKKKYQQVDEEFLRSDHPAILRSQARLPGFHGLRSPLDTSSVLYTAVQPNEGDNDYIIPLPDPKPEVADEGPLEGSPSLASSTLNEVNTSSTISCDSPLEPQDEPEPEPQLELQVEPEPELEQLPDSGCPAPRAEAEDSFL

[7] = biological target: T7, c-Met (Homo sapiens, UniProt P08581); assay: Kinase inhibition assay (33P transfer), c-Met; conditions: Table 2, kinase inhibition class; read-out: Met-1
T7 construct: Kinases are expressed as either kinase domains or full length constructs; made in house
Outline: as §2

[8] = biological target: T8, EGFR (Homo sapiens, UniProt P00533); assay: Kinase inhibition assay (33P transfer), EGFR; conditions: Table 2, kinase inhibition class; read-out: EGFR-1
T8 construct: Kinases are expressed as either kinase domains or full length constructs; made in house
Outline: as §2

[9] = biological target: T9, Kdr (Homo sapiens, UniProt P35968); assay: Kinase inhibition assay (33P transfer), Kdr; conditions: read-out: KDR-1
T9 construct: Kinases are expressed as either kinase domains or full length constructs; made in house
Outline: as §1

[10] = biological target: T10, AKT (Homo sapiens, UniProt Q9Y243); assay: Kinase inhibition assay (33P transfer), AKT; conditions: Table 2, kinase inhibition class; read-out: AKT3-1
T10 construct: Kinases are expressed as either kinase domains or full length constructs; made in house
T10 sequence (Q9Y243 whole entry, the tested form may be a part): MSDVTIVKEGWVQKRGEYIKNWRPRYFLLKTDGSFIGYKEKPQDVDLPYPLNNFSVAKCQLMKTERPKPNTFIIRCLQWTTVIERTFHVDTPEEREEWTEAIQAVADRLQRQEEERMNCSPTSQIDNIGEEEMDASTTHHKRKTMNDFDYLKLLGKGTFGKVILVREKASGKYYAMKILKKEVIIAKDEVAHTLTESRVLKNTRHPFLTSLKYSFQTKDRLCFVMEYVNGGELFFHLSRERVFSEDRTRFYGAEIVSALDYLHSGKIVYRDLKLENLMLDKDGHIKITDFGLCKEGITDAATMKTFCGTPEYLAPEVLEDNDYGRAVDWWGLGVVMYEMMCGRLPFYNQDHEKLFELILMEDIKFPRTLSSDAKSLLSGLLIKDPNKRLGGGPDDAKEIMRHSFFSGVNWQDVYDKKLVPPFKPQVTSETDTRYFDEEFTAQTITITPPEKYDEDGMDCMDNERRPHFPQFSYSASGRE
Outline: as §1

[11] = biological target: T11, Lyn (Homo sapiens, UniProt P07948); assay: Kinase inhibition assay (33P transfer), Lyn; conditions: Table 6, Lyn-1 kinase inhibition class
T11 construct: Kinases are expressed as either kinase domains or full length constructs; made in house
T11 sequence (P07948 whole entry, species assumed, the tested form may be a part): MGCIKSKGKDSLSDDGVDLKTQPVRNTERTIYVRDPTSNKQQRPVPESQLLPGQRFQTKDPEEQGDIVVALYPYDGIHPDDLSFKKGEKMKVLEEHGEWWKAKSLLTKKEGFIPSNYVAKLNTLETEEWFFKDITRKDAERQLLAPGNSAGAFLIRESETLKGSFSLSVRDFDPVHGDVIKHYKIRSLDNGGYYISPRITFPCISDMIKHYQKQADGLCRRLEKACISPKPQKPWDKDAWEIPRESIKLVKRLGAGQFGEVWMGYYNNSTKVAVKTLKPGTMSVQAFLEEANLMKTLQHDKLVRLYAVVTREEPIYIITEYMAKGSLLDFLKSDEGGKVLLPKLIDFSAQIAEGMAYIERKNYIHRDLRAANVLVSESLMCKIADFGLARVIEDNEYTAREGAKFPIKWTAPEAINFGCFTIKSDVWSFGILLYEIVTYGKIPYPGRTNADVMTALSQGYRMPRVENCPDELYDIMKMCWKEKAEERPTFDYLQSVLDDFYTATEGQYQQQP
Outline: as §2

[12] = biological target: T12, IGFR-1 (Homo sapiens, UniProt P08069); assay: Kinase inhibition assay, IGFR-1 (Table 2); conditions: Table 2, kinase inhibition class
T12 construct: Kinases are expressed as either kinase domains or full length constructs; made in house

[13] = biological target: T13, Src (Homo sapiens, UniProt P12931); assay: Kinase inhibition assay (33P transfer), Src; conditions: Table 6, Src-1 kinase inhibition class
T13 construct: Kinases are expressed as either kinase domains or full length constructs; made in house
T13 sequence (P12931 whole entry, species assumed, the tested form may be a part): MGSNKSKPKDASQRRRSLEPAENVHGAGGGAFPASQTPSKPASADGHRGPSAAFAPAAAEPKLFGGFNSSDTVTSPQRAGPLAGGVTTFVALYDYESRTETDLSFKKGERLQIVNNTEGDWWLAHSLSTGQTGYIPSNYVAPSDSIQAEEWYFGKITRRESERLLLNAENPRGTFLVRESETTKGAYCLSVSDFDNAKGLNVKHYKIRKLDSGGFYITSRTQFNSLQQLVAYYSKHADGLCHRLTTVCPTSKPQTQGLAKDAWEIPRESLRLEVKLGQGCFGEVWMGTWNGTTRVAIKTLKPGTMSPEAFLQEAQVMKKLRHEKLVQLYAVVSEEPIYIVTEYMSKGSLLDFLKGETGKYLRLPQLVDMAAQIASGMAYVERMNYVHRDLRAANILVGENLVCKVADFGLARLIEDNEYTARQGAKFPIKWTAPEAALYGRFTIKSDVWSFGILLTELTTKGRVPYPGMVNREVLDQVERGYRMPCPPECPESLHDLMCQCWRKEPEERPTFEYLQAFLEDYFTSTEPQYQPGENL
Outline: as §2

[14] = biological target: T14, Itk (Homo sapiens, UniProt Q08881); assay: Kinase inhibition assay (33P transfer), Itk; conditions: read-out: Itk-1
T14 construct: Kinases are expressed as either kinase domains or full length constructs; made in house
T14 sequence (Q08881 1-620): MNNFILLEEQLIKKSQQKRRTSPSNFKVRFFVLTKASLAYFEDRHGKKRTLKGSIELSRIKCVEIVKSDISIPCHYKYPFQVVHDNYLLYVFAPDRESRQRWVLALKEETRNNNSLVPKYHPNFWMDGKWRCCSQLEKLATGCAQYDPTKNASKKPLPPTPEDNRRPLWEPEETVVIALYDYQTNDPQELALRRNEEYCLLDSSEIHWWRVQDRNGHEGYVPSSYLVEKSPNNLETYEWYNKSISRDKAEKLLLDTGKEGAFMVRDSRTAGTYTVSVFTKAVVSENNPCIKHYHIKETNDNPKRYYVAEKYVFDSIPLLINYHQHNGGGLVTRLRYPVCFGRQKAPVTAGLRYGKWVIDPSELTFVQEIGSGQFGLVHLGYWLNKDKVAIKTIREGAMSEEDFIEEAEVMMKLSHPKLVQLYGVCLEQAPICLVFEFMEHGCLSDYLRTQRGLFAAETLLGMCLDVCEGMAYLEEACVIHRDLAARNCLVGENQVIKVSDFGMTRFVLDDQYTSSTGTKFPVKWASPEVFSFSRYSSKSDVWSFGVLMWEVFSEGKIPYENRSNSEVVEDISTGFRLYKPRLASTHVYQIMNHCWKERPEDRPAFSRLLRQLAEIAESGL
Outline: as §2

[15] = biological target: T15, Hck-1 (Homo sapiens, UniProt P08631); assay: Kinase inhibition assay (33P transfer), Hck; conditions: Table 6, Hck-1 kinase inhibition class
T15 construct: Kinases are expressed as either kinase domains or full length constructs; made in house

[16] = biological target: T16, Zap-70 (Homo sapiens, UniProt P43403); assay: Kinase inhibition assay (33P transfer), Zap-70; conditions: read-out: Zap-1
T16 construct: Kinases are expressed as either kinase domains or full length constructs; made in house
T16 sequence (P43403 1-619): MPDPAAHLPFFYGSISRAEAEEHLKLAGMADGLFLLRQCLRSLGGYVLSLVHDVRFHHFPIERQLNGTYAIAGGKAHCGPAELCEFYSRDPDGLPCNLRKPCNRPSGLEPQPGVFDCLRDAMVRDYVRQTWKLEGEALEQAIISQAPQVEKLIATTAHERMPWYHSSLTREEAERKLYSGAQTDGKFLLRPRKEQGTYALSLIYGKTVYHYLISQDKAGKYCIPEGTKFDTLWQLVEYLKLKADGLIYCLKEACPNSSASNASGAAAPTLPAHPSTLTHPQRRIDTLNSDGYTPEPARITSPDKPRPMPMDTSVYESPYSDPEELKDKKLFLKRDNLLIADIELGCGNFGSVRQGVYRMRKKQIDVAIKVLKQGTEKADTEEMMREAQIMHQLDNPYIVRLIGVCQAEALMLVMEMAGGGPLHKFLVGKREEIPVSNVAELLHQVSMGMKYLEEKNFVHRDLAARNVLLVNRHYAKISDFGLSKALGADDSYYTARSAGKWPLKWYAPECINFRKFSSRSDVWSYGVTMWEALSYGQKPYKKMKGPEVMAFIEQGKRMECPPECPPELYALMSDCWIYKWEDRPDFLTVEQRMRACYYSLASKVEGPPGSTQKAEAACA
Outline: as §1

[17] = biological target: T17, FGFR1 (Homo sapiens, UniProt P11362); assay: Kinase inhibition assay (33P transfer), FGFR1; conditions: read-out: FGFR1-1
T17 construct: Kinases are expressed as either kinase domains or full length constructs; made in house
T17 sequence (P11362 22-822, species assumed): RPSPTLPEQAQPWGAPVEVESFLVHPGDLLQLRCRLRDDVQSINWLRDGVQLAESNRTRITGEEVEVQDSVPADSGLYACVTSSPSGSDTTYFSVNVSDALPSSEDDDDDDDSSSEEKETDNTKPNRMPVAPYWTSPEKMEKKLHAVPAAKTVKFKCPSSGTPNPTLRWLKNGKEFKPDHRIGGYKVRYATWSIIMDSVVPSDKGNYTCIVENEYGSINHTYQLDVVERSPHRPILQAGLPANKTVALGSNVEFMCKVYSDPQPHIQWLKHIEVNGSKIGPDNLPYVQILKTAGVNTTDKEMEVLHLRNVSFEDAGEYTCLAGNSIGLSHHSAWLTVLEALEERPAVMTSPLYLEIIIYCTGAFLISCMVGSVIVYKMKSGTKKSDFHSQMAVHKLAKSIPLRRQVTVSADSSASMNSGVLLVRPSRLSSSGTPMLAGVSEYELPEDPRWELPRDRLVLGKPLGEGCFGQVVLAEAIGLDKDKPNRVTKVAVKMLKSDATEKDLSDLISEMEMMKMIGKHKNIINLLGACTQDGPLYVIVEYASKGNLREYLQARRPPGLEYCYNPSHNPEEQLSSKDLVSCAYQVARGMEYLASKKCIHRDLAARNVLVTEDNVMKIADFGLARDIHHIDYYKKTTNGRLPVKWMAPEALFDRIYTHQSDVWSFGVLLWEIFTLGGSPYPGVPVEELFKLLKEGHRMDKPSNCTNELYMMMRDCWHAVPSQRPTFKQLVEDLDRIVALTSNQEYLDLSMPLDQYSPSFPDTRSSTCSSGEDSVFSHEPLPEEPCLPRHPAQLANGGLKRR

[18] = biological target: T18, Flt-1 (Homo sapiens, UniProt P17948); assay: Kinase inhibition assay (33P transfer), Flt-1
T18 construct: Kinases are expressed as either kinase domains or full length constructs; made in house
Outline: as §2

[19] = biological target: T19, ErbB2 (Homo sapiens, UniProt P04626); assay: Kinase inhibition assay (33P transfer), ErbB2; conditions: read-out: ErbB2-2
T19 construct: Kinases are expressed as either kinase domains or full length constructs; made in house
T19 sequence (P04626 23-1255, species assumed): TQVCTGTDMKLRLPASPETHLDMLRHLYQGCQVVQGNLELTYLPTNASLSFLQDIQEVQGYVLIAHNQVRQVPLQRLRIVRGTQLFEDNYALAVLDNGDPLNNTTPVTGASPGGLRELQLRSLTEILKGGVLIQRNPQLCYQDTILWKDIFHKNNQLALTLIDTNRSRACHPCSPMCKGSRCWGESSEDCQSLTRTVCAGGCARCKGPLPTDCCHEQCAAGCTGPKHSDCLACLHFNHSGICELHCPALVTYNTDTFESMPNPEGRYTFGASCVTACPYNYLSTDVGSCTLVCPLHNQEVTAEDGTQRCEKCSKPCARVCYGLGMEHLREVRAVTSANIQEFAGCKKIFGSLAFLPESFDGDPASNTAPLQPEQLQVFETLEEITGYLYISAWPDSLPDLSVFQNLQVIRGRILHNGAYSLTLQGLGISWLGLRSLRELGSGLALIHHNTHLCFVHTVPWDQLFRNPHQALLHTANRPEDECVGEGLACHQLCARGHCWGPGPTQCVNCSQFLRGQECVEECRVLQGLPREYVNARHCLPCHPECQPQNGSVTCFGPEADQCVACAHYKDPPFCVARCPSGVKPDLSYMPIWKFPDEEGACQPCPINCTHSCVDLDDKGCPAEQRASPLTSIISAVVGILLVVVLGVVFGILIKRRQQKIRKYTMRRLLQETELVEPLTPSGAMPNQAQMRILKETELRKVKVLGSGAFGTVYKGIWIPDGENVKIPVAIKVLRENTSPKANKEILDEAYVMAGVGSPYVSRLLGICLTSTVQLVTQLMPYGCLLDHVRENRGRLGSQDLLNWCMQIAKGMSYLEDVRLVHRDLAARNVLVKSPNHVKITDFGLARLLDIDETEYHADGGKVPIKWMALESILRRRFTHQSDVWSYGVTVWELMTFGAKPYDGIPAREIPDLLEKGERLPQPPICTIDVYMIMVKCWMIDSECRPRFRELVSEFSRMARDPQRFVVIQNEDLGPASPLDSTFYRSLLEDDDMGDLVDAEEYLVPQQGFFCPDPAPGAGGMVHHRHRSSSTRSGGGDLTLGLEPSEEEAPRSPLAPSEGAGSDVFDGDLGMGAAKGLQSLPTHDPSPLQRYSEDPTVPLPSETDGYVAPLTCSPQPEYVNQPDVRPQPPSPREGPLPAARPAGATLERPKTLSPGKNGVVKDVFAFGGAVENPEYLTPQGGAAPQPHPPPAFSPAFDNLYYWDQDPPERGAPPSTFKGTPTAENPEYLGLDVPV
Outline: as §2

Row | SMILES | IC50 [1] [µM] | IC50 [2] [µM] | IC50 [3] [µM] | IC50 [4] [µM] | IC50 [5] [µM] | IC50 [6] [µM] | IC50 [7] [µM] | IC50 [8] [µM] | IC50 [9] [µM] | IC50 [10] [µM] | IC50 [11] [µM] | IC50 [12] [µM] | IC50 [13] [µM] | IC50 [14] [µM] | IC50 [15] [µM] | IC50 [16] [µM] | IC50 [17] [µM] | IC50 [18] [µM] | IC50 [19] [µM]
1 | COc1cc(Nc2ncnc(-n3c(NCc4cccc(Cl)c4)nc4ccccc43)n2)cc(OC)c1OC [Compound 949] | < 0.772 | > 8.69 | < 0.772 | > 8.69 | 0.772 to 4.63 | < 0.772 | 6.76 to 8.69 | > 8.69 | < 0.772 | > 8.69 | 0.772 to 4.63 | 6.76 to 8.69 | > 8.69 | > 8.69 | > 8.69 | > 8.69 | < 0.772 | < 0.772 | > 8.69
2 | COc1cc(Nc2ncnc(-n3c(NCc4cccc(F)c4)nc4ccccc43)n2)cc(OC)c1OC [Compound 513] | 0.798 to 4.79 | 6.98 to 8.97 | < 0.798 | > 8.97 | 4.79 to 6.98 | < 0.798 | > 8.97 | 6.98 to 8.97 | < 0.798 | > 8.97 | 0.798 to 4.79 | 6.98 to 8.97 | 6.98 to 8.97 | > 8.97 | > 8.97 | > 8.97 | < 0.798 | < 0.798 | 6.98 to 8.97
3 | COc1ccc(CNc2nc3ccccc3n2-c2ncnc(Nc3cc(OC)c(OC)c(OC)c3)n2)cc1 [Compound 1037] | > 8.76 | > 8.76 | 0.779 to 4.67 | > 8.76 | > 8.76 | > 8.76 | > 8.76 | > 8.76 | < 0.779 | > 8.76 | > 8.76 | > 8.76 | > 8.76 | > 8.76 | > 8.76 | > 8.76 | 0.779 to 4.67 | 4.67 to 6.82 | > 8.76

Other lines, results leading:

Row | IC50 [1] [µM] | IC50 [2] [µM] | IC50 [3] [µM] | IC50 [4] [µM] | IC50 [5] [µM] | IC50 [6] [µM] | IC50 [7] [µM] | IC50 [8] [µM] | IC50 [9] [µM] | IC50 [10] [µM] | IC50 [11] [µM] | IC50 [12] [µM] | IC50 [13] [µM] | IC50 [14] [µM] | IC50 [15] [µM] | IC50 [16] [µM] | IC50 [17] [µM] | IC50 [18] [µM] | IC50 [19] [µM] | SMILES
4 | 0.829 to 4.98 | > 9.33 | 0.829 to 4.98 | > 9.33 | 0.829 to 4.98 | < 0.829 | > 9.33 | 0.829 to 4.98 | 4.98 to 7.26 | > 9.33 | 4.98 to 7.26 | 7.26 to 9.33 | > 9.33 | > 9.33 | > 9.33 | > 9.33 | 0.829 to 4.98 | > 9.33 | < 0.829 | COc1cc(Nc2ncnc(Nc3ccc(Br)c4ccccc34)n2)cc(OC)c1OC [Compound 613]
5 | < 0.982 | 0.982 to 5.89 | 0.982 to 5.89 | 0.982 to 5.89 | 0.982 to 5.89 | 0.982 to 5.89 | < 0.982 | 0.982 to 5.89 | < 0.982 | > 11 | 0.982 to 5.89 | 5.89 to 8.59 | 0.982 to 5.89 | 0.982 to 5.89 | 8.59 to 11 | 8.59 to 11 | < 0.982 | < 0.982 | 0.982 to 5.89 | COc1cc(Nc2ncnc(N3c4ccccc4CCC3C)n2)cc(OC)c1OC (centres unmarked) [Compound 612]
